In patent publication US20100203507A1 (PROMETHEUS LABORATORIES, INC, priority 2005, published 2010):
“And” between values parts separate entries of the source, which are not always exact repeats. Equal entries are not always repeated.

Legend:
[1] = test system: patients with rheumatoid arthritis; test: Cross-sectional study: occurrence of side-effects under low dose MTX therapy (Example 1); type: in vivo, human
Description: (§1) Study design: The study was cross-sectional at two investigational California sites (Cedars Sinai, Department of Rheumatology; and UCLA, Department of Rheumatology). […] Concomitant disease-modifying arthritis agents (e.g., sulphasalazine, hydroxychloroquine, leflunomide), low-dose corticosteroids (<10 mg day), and folic acid supplementation were allowed. […] Patient demographics were collected at the time of enrollment in the study. At a single study visit, EDTA blood was drawn and shipped overnight to Prometheus Laboratories in San Diego, Calif.
(§2) Clinical status assessment: Patient clinical and demographic characteristics were collected at the single study visit. Clinical efficacy was assessed using the disease activity score (DAS28), which includes the number of tender and swollen joint counts (n=28), the erythrocyte sedimentation rate, and the patient's global assessment of disease activity.
Statistical analysis: The analysis consisted of multivariate logistic regression with the occurrence of side-effects as the dependent variable.

[2] = test system: patients with rheumatoid arthritis; test: Cross-sectional study: clinical efficacy by disease activity score DAS28 (Example 1); type: in vivo, human
Description: as §1, §2

[3] = test system: RBC folate polyglutamates; test: RBC folate polyglutamate levels by radio-assay (Example 2); type: in vivo, human; details: for RBC folate PG decrease versus baseline / RBC folate PG levels: fourth visit
Description: Laboratory measurements: Red blood cell (RBC) long-chain MTXPG concentrations (MTXPG3; nmol/L RBC) were measured using a post-column photo-oxidation HPLC-fluorometry technique as described in, e.g., Dervieux et al., Clin. Chem., 49:1632-1641 (2003). RBC folate polyglutamates (Folate PGs; expressed as nmol/L RBCs) were measured using a radio-assay (Biorad; Hercules, Calif.). The MTHFR C677T polymorphism can be measured with a real-time TaqMan allelic discrimination assay as described above. The MS A2756G polymorphism, which results in an aspartic acid to glycine substitution at codon 919 of MS, can be measured with a real-time TaqMan allelic discrimination assay using the following primers and fluorogenic 3′-minor groove binding probes: forward primer: 5′-GAATACTTTGAGGAAATCATGGAAGA-3′ (SEQ ID NO:17); reverse primer: 5′-TCTGTTTCTACCACTTACCTTGAGAGACT-3′ (SEQ ID NO:18); wild-type fluorescent probe: 5′-FAM-AGA CAG GAC CAT TAT G-MGB-3′ (SEQ ID NO:19); and mutant fluorescent probe: 5′-VIC-ACA GGG CCA TTA TG-MGB-3′ (SEQ ID NO:20).

[4] = test system: adult rheumatoid arthritis patients naive to MTX; test: Prospective longitudinal MTX dose escalation study: occurrence of side-effects (Example 2)
Description: The clinical assessment at each study visit consisted of a tender and swollen joint count, a patient's assessment of disease activity (10 cm-VAS), a physician's assessment of disease activity (10 cm-VAS), and a C-Reactive protein (CRP) determination.
The occurrence of side-effects was recorded at the time of each study visit. […] Leukocyte count, hemoglobin, and liver AST were measured on the day of the study visit using standard laboratory methods. […] All data were captured on Case Report Forms using a standardized questionnaire. This consisted of the presence of nausea, dyspepsia, diarrhea, headache, lethargy, stomatitis, alopecia, and pulmonary toxicity (e.g., cough, dyspnea, pulmonary infiltrates). Patients were evaluated by the same physician at the time of each study visit. Toxicities were graded as “mild,” “moderate,” and “severe.” EDTA whole blood was drawn from each patient and shipped overnight from Albany, N.Y. to Prometheus Laboratories in San Diego, Calif.
Toxicities were analyzed using the percentage of 4-6 week periods with side-effects per patient. […] Statistical analyses were performed using the software package SAS (Release 8.2; SAS Institute Inc.; Cary, N.C.).

[5] = test system: adult rheumatoid arthritis patients naive to MTX; test: Prospective longitudinal MTX dose escalation study: response (DAS28, EULAR criteria, physician's assessment VAS) (Example 2)
[6] = 97 patients, single study visit
[7] = MS 2756A/A vs. MS2756 A/G or G/G
[8] = MTHFR 1298A/C or C/C vs. MTHFR 1298A/A
[9] = MTRR 66G/G vs. MTRR 66A/A or A/G
[10] = visit 4, generalized linear model
[11] = visit 6, generalized linear model

SMILES: CN(Cc1cnc2nc(N)nc(N)c2n1)c1ccc(C(=O)N[C@@H](CCC(=O)O)C(=O)O)cc1 [MTX, methotrexate]
- Patients with high disease activity and side-effects, number ([1]; 97 patients): 18
- Overall side-effects, number of patients ([1]; 97 patients on MTX at least one month, single study visit): 40
- AST >40 U/L, % of patients [1, 6]: (6.1%)
- AST >40 U/L, number of patients [1, 6]: 6
- Alopecia, % of patients [1, 6]: (17.5%)
- Alopecia, number of patients [1, 6]: 17
- Central nervous system side-effects, % of patients [1, 6]: (11.3%)
- Central nervous system side-effects, number of patients [1, 6]: 11
- Diarrhea, % of patients [1, 6]: (6.2%)
- Diarrhea, number of patients [1, 6]: 6
- Dyspepsia, % of patients [1, 6]: (7.2%)
- Dyspepsia, number of patients [1, 6]: 7
- Elevation of AST twice the upper normal value, pulmonary toxicity, or hematopoietic toxicity [1, 6]: None of the patients
- Gastrointestinal tract side-effects, % of patients [1, 6]: (24.7%)
- Gastrointestinal tract side-effects, number of patients [1, 6]: 24
- Headache, % of patients [1, 6]: (5.1%)
- Headache, number of patients [1, 6]: 8
- Lethargy, % of patients [1, 6]: (8.2%)
- Lethargy, number of patients [1, 6]: 8
- Nausea, % of patients [1, 6]: (9.2%)
- Nausea, number of patients [1, 6]: 9
- Severity of side-effects [1, 6]: mild and did not require MTX withdrawal
- Stomatatis, % of patients [1, 6]: (3.1%)
- Stomatatis, number of patients [1, 6]: 3
- Patients with high disease activity also experiencing a side-effect ([1]; of patients with high disease activity, at the time of the visit): 39%
- Occurrence of central nervous system side-effects ([1]; patients with MTHFR 677C/T or 677C/C genotype): 9.0%
- Occurrence of central nervous system side-effects ([1]; patients with MTHFR 677T/T genotype): 62.5%
- Patients presenting with a side-effect ([1]; toxicogenetic index of 0): 17%
- Patients presenting with a high disease activity ([2]; 97 patients on MTX): 47%
- Disease activity score (DAS28), median ([2]; 97 patients, median 30 months under methotrexate): 5.04
- Estimate, percentage change in DAS28 vs percentage change in folate PG levels ([3]; baseline to visit 4): 0.32±0.10
- Estimate, percentage change in physician's assessment VAS vs percentage change in folate PG levels ([3]; baseline to visit 4): 0.71±0.22
- Estimate, MTX dose vs decrease in RBC folate PGs ([3]; baseline to visit 6): 0.0324±0.014
- Estimate, MTXPG levels vs decrease in RBC folate PGs ([3]; baseline to visit 6): −0.009±0.003
- Decrease in folate levels ([3]; dose 7.5 to 15 mg/week with MTXPG increase of 40 nmol/L RBCs at visit 6, from model equation): 11.7%
- Median RBC folate PG levels ([3]; fourth study visit, n=43 (initial 1222)): 1065 nmol/L RBCs
- RBC folate PG decrease versus baseline ([3]; efficacy index above 1): 14%
- RBC folate PG levels ([3]; efficacy index above 1): 1257 ± 70 nmol/L
- RBC folate PG decrease versus baseline ([3]; efficacy index of 0): 36%
- RBC folate PG levels ([3]; efficacy index of 0): 886 ± 59 nmol/L
- RBC folate PG decrease versus baseline ([3]; efficacy index of 1): 42%
- RBC folate PG levels ([3]; efficacy index of 1): 1168 ± 70 nmol/L
- Median RBC folate PG levels ([3]; sixth visit): 994 nmol/L RBCs
- Likelihood of response to MTX, decrease in RBC folate PGs vs no change or increase ([3]; visit 4): 8 fold and 7.7 fold
- Patients who experienced a severe side-effect in one of the study visits, number ([4]; 2 severe lethargy, 2 severe dyspepsia): 4
- Signs of hematological toxicity ([4]; 48 patients): None of the patients
- AST >40 U/L: median of percentage of study visits with side-effect per patient ([4]; 48 patients, 4 to 6 visits): 0%
- All side-effects: median of percentage of study visits with side-effect per patient ([4]; 48 patients, 4 to 6 visits): 50%
- Alopecia: median of percentage of study visits with side-effect per patient ([4]; 48 patients, 4 to 6 visits): 0%
- Alopecia: number of patients (% total) with at least one study visit with side-effect ([4]; 48 patients, 4 to 6 visits): 4 (8%)
- Central nervous system: median of percentage of study visits with side-effect per patient ([4]; 48 patients, 4 to 6 visits): 25%
- Central nervous system: number of patients (% total) with at least one study visit with side-effect ([4]; 48 patients, 4 to 6 visits): 30 (63%)
- Cough: median of percentage of study visits with side-effect per patient ([4]; 48 patients, 4 to 6 visits): 0%
- Cough: number of patients (% total) with at least one study visit with side-effect ([4]; 48 patients, 4 to 6 visits): 12 (25%)
- Dyspnea: median of percentage of study visits with side-effect per patient ([4]; 48 patients, 4 to 6 visits): 0%
- Dyspnea: number of patients (% total) with at least one study visit with side-effect ([4]; 48 patients, 4 to 6 visits): 1 (2.1%)
- Gastrointestinal tract: median of percentage of study visits with side-effect per patient ([4]; 48 patients, 4 to 6 visits): 25%
- Gastrointestinal tract: number of patients (% total) with at least one study visit with side-effect ([4]; 48 patients, 4 to 6 visits): 33 (69%)
- Headache: median of percentage of study visits with side-effect per patient ([4]; 48 patients, 4 to 6 visits): 0%
- Headache: number of patients (% total) with at least one study visit with side-effect ([4]; 48 patients, 4 to 6 visits): 14 (29%)
- Lethargy: median of percentage of study visits with side-effect per patient ([4]; 48 patients, 4 to 6 visits): 17%
- Lethargy: number of patients (% total) with at least one study visit with side-effect ([4]; 48 patients, 4 to 6 visits): 27 (56%)
- diarrhea: median of percentage of study visits with side-effect per patient ([4]; 48 patients, 4 to 6 visits): 0%
- diarrhea: number of patients (% total) with at least one study visit with side-effect ([4]; 48 patients, 4 to 6 visits): 15 (31%)
- dyspepsia: median of percentage of study visits with side-effect per patient ([4]; 48 patients, 4 to 6 visits): 0%
- dyspepsia: number of patients (% total) with at least one study visit with side-effect ([4]; 48 patients, 4 to 6 visits): 16 (33%)
- nausea: median of percentage of study visits with side-effect per patient ([4]; 48 patients, 4 to 6 visits): 0%
- nausea: number of patients (% total) with at least one study visit with side-effect ([4]; 48 patients, 4 to 6 visits): 22 (46%)
- stomatitis: median of percentage of study visits with side-effect per patient ([4]; 48 patients, 4 to 6 visits): 0%
- stomatitis: number of patients (% total) with at least one study visit with side-effect ([4]; 48 patients, 4 to 6 visits): 5 (10%)
- Estimate, percentage of 4 week periods with all side-effects [4, 7]: 0.20 ± 0.09
- Estimate, percentage of 4 week periods with central nervous system side-effects [4, 7]: 0.11 ± 0.09
- Estimate, percentage of 4 week periods with gastrointestinal side-effects [4, 7]: 0.29 ± 0.08
- Estimate, percentage of 4 week periods with all side-effects [4, 8]: 0.18 ± 0.10
- Estimate, percentage of 4 week periods with central nervous system side-effects [4, 8]: 0.21 ± 0.10
- Estimate, percentage of 4 week periods with gastrointestinal side-effects [4, 8]: 0.25 ± 0.09
- Estimate, percentage of 4 week periods with all side-effects [4, 9]: 0.22 ± 0.10
- Estimate, percentage of 4 week periods with central nervous system side-effects [4, 9]: 0.16 ± 0.09
- Estimate, percentage of 4 week periods with gastrointestinal side-effects [4, 9]: 0.28 ± 0.09
- Increase in MCV above 120 fl ([4]; baseline to visit 4): none of the patients
- Patients requiring MTX dosage interruption, number ([4]; both at the fourth visit): Two
- Estimate, MTX dose administered vs occurrence of central nervous system side-effects ([4]; generalized linear model): 0.186
- Median increase in MCV from baseline ([4]; visit 4): 3.5%
- Erythrocyte mean corpuscular volume (MCV), median ([4]; visit 4 (baseline 89 fl)): 93 fL
- MCV of the only one patient above 120 fl ([4]; visit 6): 124 fL
- Median increase in MCV ([4]; visit 6): 3.7%
- Estimate, lower decrease in physician's assessment in disease activity ([5]; MTHFR 677T/T genotype): 0.367
- OR, lower likelihood of response to therapy ([5]; MTHFR 677T/T genotype, visit 4): 9.9
- OR, therapeutic response at about 6 months when MTXPG3 greater than about 20 nmol/L RBCs at about 3 months ([5]; RBC MTXPG3): 8.0
- Estimate, lower decrease in physician's assessment in disease activity ([5]; TS *2/*2 genotype): 0.360
- OR, lower likelihood of response to therapy ([5]; TS *2/*2 genotype, visit 4): 3.9
- Decrease in physician's assessment of disease activity compared to baseline ([5]; dose escalation 7.5 to 15 mg/week with MTXPG increase of 40 nmol/L RBCs at visit 4, from model equation): 19.8%
- Patients responding to therapy ([5]; visit 4): 77%
- Patients responding to therapy, number ([5]; visit 4): 36
- Patients with good response, number ([5]; visit 4): 15
- Patients with moderate response, number ([5]; visit 4): 11
- Patients with poor response (EULAR) ([5]; visit 4): 23%
- DAS28, median ([5]; visit 4 (baseline 5.1)): 3.5
- Physician's assessment of disease activity 10 cm VAS, median ([5]; visit 4 (baseline 5.6)): 2.6
- Estimate, RBC MTXPG level vs percentage change from baseline in physician's assessment VAS [5, 10]: −0.013±0.004
- Estimate, weekly MTX dose vs percentage change from baseline in physician's assessment VAS [5, 10]: 0.043±0.017
- Estimate, RBC MTXPG formation in responders vs non-responders ([5]; visit 4, generalized linear model, FIG. 3A): 0.034±0.020
- Patients with poor response (EULAR), number ([5]; visit 4, median dose 15 mg/week): 11
- Median decrease (from baseline) in DAS28 ([5]; visit 4, n=47): 36%
- Median decrease (from baseline) in physician's assessment of disease activity VAS ([5]; visit 4, n=48): 47%
- Estimate, MTX dose vs percentage change from baseline in DAS28 ([5]; visit 6): 0.011±0.051
- Estimate, formation of RBC MTXPGs vs percentage change from baseline in DAS28 ([5]; visit 6): −0.003±0.001
- Non-responders ([5]; visit 6): 9%
- Responders with moderate response, number ([5]; visit 6): 10
- Responders, number of patients ([5]; visit 6): 31
- DAS28, median ([5]; visit 6 (baseline 5.1)): 3.1
- Physician's assessment of disease activity 10 cm VAS, median ([5]; visit 6 (baseline 5.6)): 2.1
- Estimate, RBC MTXPG levels vs percentage change from baseline in physician's assessment of disease activity [5, 11]: −0.0077±0.025
- Estimate, weekly MTX dose vs percentage change from baseline in physician's assessment of disease activity [5, 11]: 0.029±0.012
- Non-responders, number of patients ([5]; visit 6, median dose 17.5 mg weekly): three
- Median decrease (from baseline) in DAS28 ([5]; visit 6, n=34): 41%
- Median decrease (from baseline) in physician's assessment of disease activity VAS ([5]; visit 6, n=35): 52%
- Responders with moderate response ([5]; visit 6, of the responders): 32%
